A short description of series [1]: Cytotoxicity against mouse BMDM cells at 10 uM after 72 hrs by MTS assay. Format: cell-based. A general note: Tetrazolium assays rely on reduction of a dye to a coloured formazan, in cell work by metabolically active cells.
Series [2] can be described thus: Inhibition of RANKL-induced osteoclastogenesis in mouse BMDM assessed as decrease in TRAP-positive cells at 10 uM after 5 days by light microscopy. The settings on record: 120 h. Format: functional.

`O=c1ccc2ccc(O[C@@H]3O[C@H](CO)[C@@H](O)[C@H](O)[C@H]3O)c(O[C@@H]3O[C@H](CO)[C@@H](O)[C@H](O)[C@H]3O)c2o1` [DAPHNESIDE]: the Activity result in series [1] is “Non-toxic”. In addition, the inhibition at 10 µM in series [2] worked out at 20%.
For the compound `COc1cc2cc(Oc3ccc4ccc(=O)oc4c3)c(=O)oc2cc1O[C@@H]1O[C@H](CO)[C@@H](O)[C@H](O)[C@H]1O` [DAPHNORIN], the Activity entry in series [1] was “Non-toxic”. Moreover, the inhibition at 10 µM in series [2] is 13%.

For orientation: inhibition means the change of the read-out against control, counted positive when it falls.
